Measured values taken from patent publication US4605614A, “Method for measuring plasmin” (Nitto Boseki Co., Ltd., priority 1981, dated 1986).
Where a SMILES comes first, the peptide text is derived from it. [ ]: non-standard residue; d: D form. The star is where a group is joined. pNA = O=[N+]([O-])c1ccc(N*)cc1; Tos = Cc1ccc(S(=O)(=O)*)cc1

Columns and labels:
Plasmin (PL) = Plasmin (PL) (Sus scrofa, UniProt P06867); type: biochemical, Pig; settings: pH 7.4, 37° C., 10 minutes, 0.32 CU/ml; for Selectivity PL, absorbance (O.D.) at 645 nm: TABLE 4, CHA substrates, So = 0.54; for Selectivity PL, absorbance (O.D.) at 405 nm: TABLE 3, PNA substrates, So = 0.54 mmole/l
Protocol: (§1) (1) Substrate solution concentration: 35 mmole/liter H2 O
(§2) (2) Buffer: Tris-hydrochloric acid buffer 50 mmole/l, NaCl 150 mmole/l (0.875%) was employed, and the pH for reaction was as follows depending on the enzyme.
Plasmin Pig Sigma (U.S.A.)
(§3) 0.5 ml of the buffer solution and 0.05 ml of the enzyme reagent were taken into a silicon-treated hard glass test tube or a plastic test tube, and preheated in a constant temperature bath at 37° C. for 5 minutes. Thereafter, 0.1 ml of the substrate solution was added to effect the enzymatic reaction at 37° C. for 10 minutes. Exactly after 10 minutes, 2.5 ml of the reaction terminating solution or the terminating and color developing reagent solution was added to terminate the enzymatic reaction, and after allowing to stand at 25° C. for 10 minutes, the absorbance at 405 nm or 645 nm was measured, in which [drawing 49]

Thrombin (TH) = Thrombin (TH) (Bos taurus, UniProt P00735); type: biochemical, Cow; settings: pH 8.4, 37° C., 10 minutes, 1.0 NIH/ml; for Selectivity TH, absorbance (O.D.) at 645 nm: TABLE 4, CHA substrates, So = 0.54; for Selectivity TH, absorbance (O.D.) at 405 nm: TABLE 3, PNA substrates, So = 0.54 mmole/l
Protocol: (§4) The specificities of the novelly synthesized substrates were tested by reacting them with various enzymes respectively.
as §1, §2
(§5) 2,6-Xylenol 7.0 mmole+NaIO4 1.5 mmole/0.2N KOH
as §3

Kallikrein (KL) = Kallikrein (KL) (Sus scrofa, UniProt P00752); type: biochemical, Pig; settings: pH 7.9, 37° C., 10 minutes, 1.0 BAEE-U/ml; for Selectivity KL, absorbance (O.D.) at 645 nm: TABLE 4, CHA substrates, So = 0.54; for Selectivity KL, absorbance (O.D.) at 405 nm: TABLE 3, PNA substrates, So = 0.54 mmole/l
plasmin (pig) = plasmin (pig) (Sus scrofa, UniProt P06867); assay: Km, Vmax and Vmax/Km of substrates for plasmin (pig); type: biochemical, Porcine (pig); settings: for Vmax (× 10^-7): TABLE 2, CHA substrates, plasmin (pig), 2,6-xylenol 615 nm; for Vmax (× 10^7): 405 nm
Urokinase (UK) = Urokinase (UK) (Homo sapiens, UniProt P00749); type: biochemical; settings: pH 8.2, 37° C., 10 minutes, 1000 IU/ml; for Selectivity UK, absorbance (O.D.) at 645 nm: TABLE 4, CHA substrates, So = 0.54; for Selectivity UK, absorbance (O.D.) at 405 nm: TABLE 3, PNA substrates, So = 0.54 mmole/l
Protocol: as §4, §1, §2, §5, §3

Factor-Xa (FXa) = Factor-Xa (FXa) (Bos taurus, UniProt P00743); type: biochemical, Cow; settings: pH 8.4, 37° C., 10 minutes, 0.4 U/ml; for Selectivity FXa, absorbance (O.D.) at 645 nm: TABLE 4, CHA substrates, So = 0.54; for Selectivity FXa, absorbance (O.D.) at 405 nm: TABLE 3, PNA substrates, So = 0.54 mmole/l
Protocol: as §4, §1, §2, §5, §3

[1] = TABLE 2, V/Km of each sample divided by that of S2251 (so in the source)
[2] = TABLE 1, PNA substrates, plasmin (pig)
[3] = TABLE 1, V/Km of each sample divided by that of S2251

Chain of plasmin (pig) (P06867 97-809): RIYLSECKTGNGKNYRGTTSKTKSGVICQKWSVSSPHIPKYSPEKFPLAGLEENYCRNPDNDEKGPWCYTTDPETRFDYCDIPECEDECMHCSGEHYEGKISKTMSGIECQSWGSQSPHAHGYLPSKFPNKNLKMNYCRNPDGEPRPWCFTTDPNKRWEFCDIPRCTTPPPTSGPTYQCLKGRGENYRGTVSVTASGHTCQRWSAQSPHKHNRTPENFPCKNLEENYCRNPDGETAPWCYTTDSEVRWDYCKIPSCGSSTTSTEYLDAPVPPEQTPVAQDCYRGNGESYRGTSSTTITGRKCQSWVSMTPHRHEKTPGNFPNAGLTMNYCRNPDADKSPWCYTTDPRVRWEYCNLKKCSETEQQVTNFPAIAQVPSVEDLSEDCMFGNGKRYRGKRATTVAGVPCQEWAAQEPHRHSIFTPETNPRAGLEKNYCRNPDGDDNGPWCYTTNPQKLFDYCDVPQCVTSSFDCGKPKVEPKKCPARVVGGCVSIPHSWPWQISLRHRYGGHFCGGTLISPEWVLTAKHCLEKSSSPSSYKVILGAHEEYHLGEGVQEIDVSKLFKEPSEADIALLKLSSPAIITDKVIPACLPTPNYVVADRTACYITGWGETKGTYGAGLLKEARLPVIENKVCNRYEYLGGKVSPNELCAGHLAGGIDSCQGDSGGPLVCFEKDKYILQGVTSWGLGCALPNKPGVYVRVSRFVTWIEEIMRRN
Chain of Plasmin (PL) (P06867 97-809): as above
Chain of Thrombin (TH) (P00735 44-625): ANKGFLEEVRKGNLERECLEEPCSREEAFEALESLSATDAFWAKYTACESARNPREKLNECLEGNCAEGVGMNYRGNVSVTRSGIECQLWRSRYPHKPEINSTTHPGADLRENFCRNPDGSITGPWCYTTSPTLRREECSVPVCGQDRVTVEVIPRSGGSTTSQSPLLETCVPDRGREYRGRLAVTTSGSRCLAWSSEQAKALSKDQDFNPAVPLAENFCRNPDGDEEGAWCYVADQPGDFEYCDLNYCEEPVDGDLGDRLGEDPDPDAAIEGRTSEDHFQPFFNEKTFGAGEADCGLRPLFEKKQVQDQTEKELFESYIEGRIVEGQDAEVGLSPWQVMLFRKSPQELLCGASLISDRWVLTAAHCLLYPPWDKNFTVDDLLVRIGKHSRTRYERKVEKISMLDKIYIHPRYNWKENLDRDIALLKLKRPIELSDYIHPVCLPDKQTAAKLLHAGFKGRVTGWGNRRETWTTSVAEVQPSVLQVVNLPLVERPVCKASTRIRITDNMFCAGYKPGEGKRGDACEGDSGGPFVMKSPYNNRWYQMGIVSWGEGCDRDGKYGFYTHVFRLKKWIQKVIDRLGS
Chain of Factor-Xa (FXa) (P00743 41-180): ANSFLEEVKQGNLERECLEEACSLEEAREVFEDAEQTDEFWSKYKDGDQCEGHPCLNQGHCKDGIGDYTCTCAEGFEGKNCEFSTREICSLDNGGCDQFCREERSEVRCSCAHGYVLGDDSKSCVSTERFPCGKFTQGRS
Chain of Factor-Xa (FXa) (P00743 234-492): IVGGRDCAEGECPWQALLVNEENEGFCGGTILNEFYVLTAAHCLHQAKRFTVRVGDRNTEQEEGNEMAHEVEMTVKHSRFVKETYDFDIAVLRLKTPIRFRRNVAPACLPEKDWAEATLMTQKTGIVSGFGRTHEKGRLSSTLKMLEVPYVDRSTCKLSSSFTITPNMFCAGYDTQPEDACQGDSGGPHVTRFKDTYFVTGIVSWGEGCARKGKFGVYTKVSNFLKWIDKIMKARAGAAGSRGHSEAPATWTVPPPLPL
Chain of Kallikrein (KL) (P00752 8-246): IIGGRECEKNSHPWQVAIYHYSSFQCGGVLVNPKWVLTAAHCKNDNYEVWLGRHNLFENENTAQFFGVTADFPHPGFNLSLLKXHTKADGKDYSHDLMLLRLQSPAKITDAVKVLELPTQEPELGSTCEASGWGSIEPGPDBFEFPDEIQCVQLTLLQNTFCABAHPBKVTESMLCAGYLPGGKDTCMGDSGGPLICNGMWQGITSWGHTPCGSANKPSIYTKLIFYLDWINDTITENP

SMILES	Selectivity PL, absorbance (O.D.) at 645 nm (Plasmin (PL)) [O.D.]	Selectivity TH, absorbance (O.D.) at 645 nm (Thrombin (TH)) [O.D.]	Selectivity KL, absorbance (O.D.) at 645 nm (Kallikrein (KL)) [O.D.]	Vmax (× 10^-7) (plasmin (pig))	Relative ratio (plasmin (pig); [1])	Selectivity UK, absorbance (O.D.) at 645 nm (Urokinase (UK)) [O.D.]	Selectivity FXa, absorbance (O.D.) at 645 nm (Factor-Xa (FXa)) [O.D.]	Selectivity PL, absorbance (O.D.) at 405 nm (Plasmin (PL)) [O.D.]	Selectivity TH, absorbance (O.D.) at 405 nm (Thrombin (TH)) [O.D.]	Selectivity KL, absorbance (O.D.) at 405 nm (Kallikrein (KL)) [O.D.]	Vmax (× 10^-6) [mole/min/Cu] (plasmin (pig); Porcine Plasmin, comparison table in description)	V/Km (× 10^-3) (plasmin (pig); [2])	Vmax (× 10^7) (plasmin (pig); [2])	Relative ratio (plasmin (pig); [3])	Selectivity UK, absorbance (O.D.) at 405 nm (Urokinase (UK)) [O.D.]	Selectivity FXa, absorbance (O.D.) at 405 nm (Factor-Xa (FXa)) [O.D.]
NCCCC[C@H](NC(=O)[C@H](Cc1ccccc1)NC(=O)[C@H](N)CC(=O)OC1CCCCC1)C(=O)Nc1ccc(O)c(C(=O)O)c1 [NPC-22]	0.213	0	0.023	17.991 × 10^-7	42.715	0.026	0.015	–	–	–	–	–	–	–	–	–
NCCCC[C@H](NC(=O)[C@H](Cc1ccccc1)NC(=O)[C@H](N)CCCCNC(=O)OCc1ccccc1)C(=O)Nc1ccc(O)c(C(=O)O)c1 [NPC-20]	0.467	0	0.019	40.725 × 10^-7	74.040	0.004	0.006	–	–	–	–	–	–	–	–	–
Cc1ccc(S(=O)(=O)NCCCC[C@@H](N)C(=O)N[C@@H](Cc2ccccc2)C(=O)N[C@@H](CCCCN)C(=O)Nc2ccc([N+](=O)[O-])cc2)cc1 [NPN-2, H-D-Lys(ToS)-Phe-Lys PNA.2HBr] (H-[dK](Tos)-Phe-Lys-pNA)	–	–	–	–	–	–	–	0.383	0	0.004	4.8 × 10^-6 mole/min/Cu	303.595 × 10^-3	47.968 × 10^7	26.517	0.001	0.003
NCCCC[C@H](NC(=O)[C@H](Cc1ccccc1)NC(=O)[C@H](N)CCCCNC(=O)c1ccccc1)C(=O)Nc1ccc(O)c(C(=O)O)c1 [NPC-14]	0.417	0	0.016	33.794 × 10^-7	91.036	0.001	0.002	–	–	–	–	–	–	–	–	–
NCCCC[C@@H](N)C(=O)N[C@@H](Cc1ccccc1)C(=O)N[C@@H](CCCCN)C(=O)Nc1ccc(O)c(C(=O)O)c1 [NPC-3]	0.096	0	0.004	7.506 × 10^-7	30.432	0	0.002	–	–	–	–	–	–	–	–	–
Cc1ccc(S(=O)(=O)NCCC[C@@H](N)C(=O)N[C@@H](Cc2ccccc2)C(=O)N[C@@H](CCCCN)C(=O)Nc2ccc(O)c(C(=O)O)c2)cc1 [NPC-18]	0.392	0	0.019	35.252 × 10^-7	58.558	0.001	0.002	–	–	–	–	–	–	–	–	–
NCCCC[C@H](NC(=O)[C@H](Cc1ccccc1)NC(=O)[C@H](N)CCC(=O)NCCc1ccccc1)C(=O)Nc1ccc([N+](=O)[O-])cc1 [NPN-4] (HELM PEPTIDE1{[dE].F.K.[O=[N+]([O-])c1ccc(N[*:1])cc1]}|CHEM1{[c1ccc(CCN[*:1])cc1]}$PEPTIDE1,CHEM1,1:R3-1:R1$$$V2.0)	–	–	–	–	–	–	–	0.330	0.001	0.010	–	–	23.895 × 10^7	7.481	0.002	0.006
NCCCC[C@H](NC(=O)[C@H](Cc1ccccc1)NC(=O)[C@H](N)CCCCNC(=O)Cc1ccccc1)C(=O)Nc1ccc(O)c(C(=O)O)c1 [NPC-16]	0.325	0	0.012	26.986 × 10^-7	68.162	0.001	0.002	–	–	–	–	–	–	–	–	–
NCCCC[C@H](NC(=O)[C@H](Cc1ccccc1)NC(=O)[C@H](N)CCCCNS(=O)(=O)c1ccc2ccccc2c1)C(=O)Nc1ccc([N+](=O)[O-])cc1 [NPN-11]	–	–	–	–	–	–	–	0.171	0	0.001	–	–	23.895 × 10^7	11.660	0.001	0.005
Cc1ccc(CCNC(=O)CC[C@@H](N)C(=O)N[C@@H](Cc2ccccc2)C(=O)N[C@@H](CCCCN)C(=O)Nc2ccc(O)c(C(=O)O)c2)cc1 [NPC-24]	0.279	0	0.009	21.637 × 10^-7	46.748	0.004	0.005	–	–	–	–	–	–	–	–	–
Cc1ccc(CCOC(=O)CC[C@@H](N)C(=O)N[C@@H](Cc2ccccc2)C(=O)N[C@@H](CCCCN)C(=O)Nc2ccc([N+](=O)[O-])cc2)cc1 [NPN-9]	–	–	–	–	–	–	–	0.299	0	0.016	–	–	30.202 × 10^7	6.171	0.002	0.006
CS(=O)(=O)NCCCC[C@@H](N)C(=O)N[C@@H](Cc1ccccc1)C(=O)N[C@@H](CCCCN)C(=O)Nc1ccc(O)c(C(=O)O)c1 [NPC-25]	0.185	0	0.006	15.803 × 10^-7	43.613	0	0	–	–	–	–	–	–	–	–	–
Cc1ccc(C(=O)NCCCC[C@@H](N)C(=O)N[C@@H](Cc2ccccc2)C(=O)N[C@@H](CCCCN)C(=O)Nc2ccc([N+](=O)[O-])cc2)cc1 [NPN-10]	–	–	–	–	–	–	–	0.335	0.001	0.011	–	–	26.218 × 10^7	14.764	0.001	0.006
NCCCC[C@H](NC(=O)[C@H](Cc1ccccc1)NC(=O)[C@H](N)CCCCNC(=O)c1ccc2ccccc2c1)C(=O)Nc1ccc(O)c(C(=O)O)c1 [NPC-9, HD-Lys(NaC)PheLysCHA.2HCl]	0.120	0	0.027	13.827 × 10^-7	38.270	0	0.001	–	–	–	–	–	–	–	–	–
